Results as given in PubChem BioAssay (NCI).
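Exposure lasted 48 hours, with cells grown in 96-well plates and compounds tested at five concentrations. Abbreviation: GI50, concentration required for 50% inhibition of growth. Definition used: TGI = concentration required for complete inhibition of growth.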

Legend:
Assay in all cases: NCI-60 cell line screen, 48 h
A498 renal = tested on: A498 renal
HCT-116 colon = tested on: HCT-116 colon
HCT-15 colon = tested on: HCT-15 colon
IGROV1 ovarian = tested on: IGROV1 ovarian
MALME-3M melanoma = tested on: MALME-3M melanoma
OVCAR-8 ovarian = tested on: OVCAR-8 ovarian
SK-MEL-28 melanoma = tested on: SK-MEL-28 melanoma
SW-620 colon = tested on: SW-620 colon
TK-10 renal = tested on: TK-10 renal
LOX IMVI melanoma = tested on: LOX IMVI melanoma
MDA-N = tested on: MDA-N

Row | SMILES | TGI (A498 renal) | TGI (HCT-116 colon) | TGI (HCT-15 colon) | TGI (IGROV1 ovarian) | TGI (MALME-3M melanoma) | TGI (OVCAR-8 ovarian) | TGI (SK-MEL-28 melanoma) | TGI (SW-620 colon) | TGI (TK-10 renal) | TGI (LOX IMVI melanoma) | TGI (MDA-N) | GI50 (A498 renal) | GI50 (HCT-15 colon) | GI50 (IGROV1 ovarian) | GI50 (MALME-3M melanoma) | GI50 (OVCAR-8 ovarian) | GI50 (SK-MEL-28 melanoma) | GI50 (SW-620 colon) | GI50 (TK-10 renal)
1 | Oc1cn(-c2ccc(Cl)cc2)nc1-c1nnc(Nc2ccccc2)o1 | 29.5 µM | 29.6 µM | 28 µM | 32.4 µM | 50.1 µM | 43.6 µM | 34.9 µM | 41 µM | 38.1 µM |  |  |  |  |  |  |  |  |  | 
2 | COc1ccc(/C=C2/C(=O)N(C(=O)c3ccc(Cl)cc3)N=C2C)cc1OC | > 100 µM | > 100 µM | > 100 µM | > 100 µM | > 100 µM | > 100 µM | > 100 µM | > 100 µM | > 100 µM | > 100 µM |  |  |  |  |  |  |  |  | 
3 | CCOC(=O)[C@H]1C[C@@H](C(=O)c2ccccc2)N2N=C(c3ccc(Br)cc3)C=C[C@H]12 | > 100 µM | > 100 µM | > 100 µM |  |  | > 100 µM | > 100 µM | > 100 µM | > 100 µM | > 100 µM |  |  |  |  |  |  |  |  | 
4 | CCOC(=O)CNC(=O)C(CSC(=O)N(O)c1ccc(Br)cc1)NC(=O)CCC(N)C(=O)OCC (stereo not drawn) | > 50 µM | > 50 µM | > 50 µM | > 50 µM | > 50 µM | > 50 µM | > 50 µM | > 50 µM |  | > 50 µM | > 50 µM |  |  |  |  |  |  |  | 
5 | CCCCOC(=O)/C(CC(=O)C=C(C)C)=N\NS(=O)(=O)c1ccc(C)cc1 | > 100 µM | > 100 µM | > 100 µM | > 100 µM | > 100 µM | > 100 µM | > 100 µM |  | > 100 µM | > 100 µM |  |  |  |  |  |  |  |  | 
6 | CCCCCCC(N)(CCCCCC)C(=O)Nn1c(C)ccc1C | > 100 µM | > 100 µM | > 100 µM | > 100 µM | > 100 µM | > 100 µM | > 100 µM | > 100 µM | > 100 µM |  | > 100 µM |  |  |  |  |  |  |  | 
7 | COc1ccc2c(OC)c3ccoc3nc2c1O | > 100 µM | > 100 µM | > 100 µM | > 100 µM | > 100 µM | > 100 µM | > 100 µM | > 100 µM | > 100 µM |  |  |  |  |  |  |  |  |  | 
8 | Clc1cc(Cl)cc(N2N=C(c3cccc(Nc4ccncc4)c3)CC2c2ccccc2)c1 (stereo not drawn) | 4.42 µM |  | 3.31 µM | 3.04 µM | 3.16 µM | 4.56 µM | 3.21 µM | 3.73 µM | 3.98 µM |  |  | 1.81 µM | 1.66 µM | 1.54 µM | 1.67 µM | 2.07 µM | 1.76 µM | 1.85 µM | 2.02 µM
9 | CC(SC1=CC(=O)c2c(Cl)ccc(O)c2C1=O)C(=O)O (stereo not drawn) | > 100 µM | 34.4 µM | 33.9 µM | 33.4 µM | 37.7 µM | 36.3 µM | 32.9 µM | 36.2 µM | 35.3 µM | 21.7 µM |  |  |  |  |  |  |  |  | 
10 | COC(=O)c1c/c(=N\NC(=O)CC(=O)Nc2ccccc2Cl)c2ccccc2o1 |  | > 100 µM | > 100 µM | > 100 µM |  | > 100 µM | > 100 µM | > 100 µM | > 100 µM | > 100 µM |  |  |  |  |  |  |  |  | 
11 | CCc1cc(Cc2cc(CC)c(NC(=O)C3=CC(=O)CC(c4ccc(OC)cc4)O3)c(CC)c2Cl)c(Cl)c(CC)c1NC(=O)C1=CC(=O)CC(c2ccc(OC)cc2)O1 (stereo not drawn) | 39.9 µM | 31.6 µM | 53.7 µM | 45.5 µM | 37.2 µM | 90.5 µM | 41.4 µM | 20.9 µM | 51.7 µM | 32.4 µM |  |  |  |  |  |  |  |  | 
12 | COc1ccc(NC=O)c(C(O)CCNC(C)=O)c1 (stereo not drawn) | > 100 µM | > 100 µM | > 100 µM | > 100 µM |  | > 100 µM |  | > 100 µM | > 100 µM | > 100 µM | > 100 µM |  |  |  |  |  |  |  | 
13 | COc1ccc(/C=C/C(=O)NCC(NC(=O)/C=C/c2ccc(OC)c(OC)c2)C(=O)O)cc1OC (stereo not drawn) | > 100 µM | > 100 µM |  |  | > 100 µM | > 100 µM | > 100 µM | > 100 µM | > 100 µM | > 100 µM | > 100 µM |  |  |  |  |  |  |  | 
14 | O=S(=O)(CC1=NC2C=CC=CC2N=C1)NCc1ccccc1 (stereo not drawn) | > 100 µM | > 100 µM | > 100 µM | > 100 µM | > 100 µM | > 100 µM | > 100 µM | > 100 µM | > 100 µM | > 100 µM |  |  |  |  |  |  |  |  | 
15 | O=C(Nc1ccccc1)N1CCNC1=S | > 100 µM | > 100 µM | > 100 µM | > 100 µM | > 100 µM | > 100 µM | > 100 µM | > 100 µM |  | > 100 µM | > 100 µM |  |  |  |  |  |  |  | 
16 | COc1ccc2c(c1)c(Cc1c(C)n(C)c3ccc(OC)cc13)c(C)n2C | > 100 µM | > 100 µM | > 100 µM | > 100 µM | > 100 µM | > 100 µM | > 100 µM | > 100 µM | > 100 µM | > 100 µM |  |  |  |  |  |  |  |  | 
17 | CC(=O)OC1[C@H]2c3cc4c(cc3CN3CCC(C[C@@H]1OC(C)=O)C23)OCO4 (stereo partly drawn) |  | > 75 µM | > 75 µM | > 75 µM | > 75 µM | > 75 µM | > 75 µM | > 75 µM | > 75 µM | > 75 µM |  |  |  |  |  |  |  |  | 
18 | O=C(/C=C/c1ccc(O)c(O)c1)NC(CO)C(=O)O (stereo not drawn) | > 100 µM | > 100 µM | > 100 µM |  | > 100 µM | > 100 µM | > 100 µM | > 100 µM | > 100 µM | > 100 µM | > 100 µM |  |  |  |  |  |  |  | 
19 | O=C(CCN(CCO)CCO)Nc1ccc2c(c1)C(=O)c1ccc(NC(=O)CCN(CCO)CCO)cc1C2=O | 37.9 µM | 33.2 µM | 19.8 µM | 50.7 µM | 27.9 µM | > 100 µM | 62.6 µM | 33.4 µM | > 100 µM | 56.5 µM |  |  |  |  |  |  |  |  | 
20 | CCCOC(=O)c1cc(C(=CCC[C@H]2CC[C@@]3(C)[C@@H](CC[C@@H]4[C@@H]3CC[C@]3(C)[C@@H](C(C)CCCC(C)C)CC[C@@H]43)C2)c2cc(Cl)c(O)c(C(=O)OCCC)c2)cc(Cl)c1O (stereo partly drawn) | > 50 µM | > 50 µM | > 50 µM | > 50 µM |  | > 50 µM |  | > 50 µM |  | > 50 µM | > 50 µM |  |  |  |  |  |  |  | 
21 | N[C@@H]1C[C@H](N)c2c(Cl)sc(Cl)c21 | > 100 µM | > 100 µM | > 100 µM | > 100 µM |  | > 100 µM | > 100 µM | > 100 µM |  | > 100 µM | > 100 µM |  |  |  |  |  |  |  | 
